Data reported in patent US5202456A, “Compounds for inhibition of protein methylation” (The President and Fellows of Harvard College, priority 1991, dated 1993).
“Also recorded” adds a separate entry of the source. Where two headings read alike, the source gives them in different places. * marks the point of attachment. Farnesyl = CC(C)=CCC/C(C)=C/CC/C(C)=C/C*

How the values were obtained:
[1] = tested on: demethylase activity in ROS membranes; test: Methylation exchange/demethylation of AFC methyl ester with ROS membranes; assay type: biochemical, bovine
Description: (§1) Frozen bovine retinas (Wanda Lawson Co., Lincoln, Nebr.) were used to prepare ROS membranes depleted of peripheral proteins using a modification of the procedure of Wessling-Resnick et al. (J. Biol. Chem. 262:3697, 1987). Briefly, ROS membranes were washed with low ionic strength buffer and 100μM GTP, resuspended in 50 mM Hepes-Na (pH 7.4), 100 mM NaCl, 5 mM MgCl2, 0.1 mM phenylmethylsulfonyl fluoride, 0.1 mM dithiothreitol (buffer A) and stored in small aliquots at -80° C. until used. Transducin was isolated by disrupting ROS membranes by passing the membranes through a narrow needle and washing the disrupted membranes in a series of centrifugation steps as described by Wessling-Resnick et al. (J. Biol. Chem. 262:3697, 1987). Finally transducin was eluted from the membranes with 100μM GTP. The transducin-enriched supernatant was concentrated using Centriprep (Amicon).
(§2) For initial studies, the reaction mixture contained 20 μCi of S-adenosyl-[methyl-^3 H] methionine ([^3 H]SAM) (2.34 μM, Amersham) and an aliquot of ROS (120μg of total protein) or of washed ROS membranes (80μg of total protein) in 100 μl of buffer A. Purified transducin was added to this mixture to a concentration of 5 μM. AFC, N-acetylcysteine, or AFC methylester was added in 2 μl of dimethyl sulfoxide to give a final concentration of 20 μM, and the reaction was carried out at 37° C.
To study the demethylation process directly, AFC[^3 H]methyl ester was incubated with ROS membranes in the presence of methylation inhibitors. […] Under similar conditions, demethylation of Tγ and the putative small G protein (23-29 kDa) was also observed.

HL-60 cell extracts = test: Turnover of AFC methyl ester by HL-60 cell extracts; assay type: biochemical; conditions: in words
[2] = target: T1, ROS methyltransferase (bovine retinal rod outer segment S-adenosyl-L-methionine-dependent methyltransferase) (Bos taurus, UniProt A0AAA9SD88); test: ROS methyltransferase assay: compounds as substrates (Km) or inhibitors (Ki) of AFC methylation; assay type: biochemical
T1 construct: utilizing ROS membranes as the source of methyltransferase enzyme; tissue Wanda Lawson Co., Lincoln, Nebr; (frozen bovine retinas); host or cells: bovine retinal rod outer segment (ROS) membranes
Description: Standard assays may be used to determine Km for substrates and Ki for inhibitors. […] The values of Ki and Km are calculated from kinetic assays by conventional means (Fersht, Enzyme Structure and Mechanism, W. H. Freeman and Co., New York, 1984). Examples are provided below to illustrate suitable assays, and are not intended to limit the invention.
One suitable assay of methylation functions uses bovine retinal rod outer segment (ROS) methyltransferase and a natural substrate, transducin. […] Another suitable assay uses N-acetyl-S-farnesylcysteine as a substrate for ROS methyltransferase.
The bovine retinal transducin γ subunit has a carboxyl-terminal --CAAX motif and undergoes a farnesylation reaction similar to that observed on ras (Lai et al., Proc. Natl. Acad. Sci. USA 87:7673, 1990; Fukada et al., Nature 346:658, 1990).
as §1, §2
The above-described methyltransferase assay was used to analyze the analogs described above.

transducin γ subunit = test: In vitro carboxyl-methylation of transducin γ subunit in ROS; assay type: biochemical, bovine; conditions: 10 μM; [3H]SAM 2.3 μM; densitometry of SDS gels
From the text: We have identified an S-adenosyl-L-methionine-dependent methyltransferase activity in bovine retinal rod outer segments (ROS) which methylates the free carboxyl group of the farnesylated cysteine of bovine retinal transducin γ subunit. The bovine retinal transducin γ subunit has a carboxyl-terminal --CAAX motif and undergoes a farnesylation reaction similar to that observed on ras (Lai et al., Proc. Natl. Acad. Sci. USA 87:7673, 1990; Fukada et al., Nature 346:658, 1990). Bovine retinal rod outer segment S-adenosyl-L-methionine-dependent methyltransferase (ROS methyltransferase) provides a means by which to identify compounds capable of interfering with the methylation of proteins having a carboxyl-terminal --CAAX motif.
Frozen bovine retinas (Wanda Lawson Co., Lincoln, Nebr.) were used to prepare ROS membranes depleted of peripheral proteins using a modification of the procedure of Wessling-Resnick et al. (J. Biol. Chem. 262:3697, 1987). Briefly, ROS membranes were washed with low ionic strength buffer and 100μM GTP, resuspended in 50 mM Hepes-Na (pH 7.4), 100 mM NaCl, 5 mM MgCl2, 0.1 mM phenylmethylsulfonyl fluoride, 0.1 mM dithiothreitol (buffer A) and stored in small aliquots at -80° C. until used. […]

HL-60 cells = test: Inhibition of HL-60 cell proliferation (trypan blue dye exclusion count); assay type: cell-based; conditions: FIG. 2; in words
Description: FTA, FTP, AFHC and AFC were tested for their ability to inhibit cell growth as follows.
HL-60 cells (ATCC CCL 240, American Type Culture Collection, Rockville, Md.) which harbor an activated ras gene were grown in RPMI medium (Gibco/BRL, Bethesda, Md.) supplemented with 10-15% fetal calf serum, L-glutamine, penicillin and streptomycin. These cells were treated with various concentrations of FTA, FTP, AFHC, or AFC dissolved in dimethyl sulfoxide (DMSO) or with DMSO only (In all experiments the final DMSO concentration was 1% or less). Treated ans untreated cells were incubated under standard culture conditions for several days. Cells were counted manually at 24 hour intervals using a trypan blue dye exclusion assay which counts only live, intact cells.

23 kDa ras protein = test: [3H]SAM methylation of 23 kDa ras protein in disrupted HL-60 cells; assay type: biochemical; conditions: 50 μM
Description: In an in vitro labelling reaction similar to that described above for ROS membranes, the 23 kDa ras protein was the principle protein methylated by [^3 H]SAM labelling of disrupted HL-60 cells. In this assay 50 μM FTA inhibited methylation of the 23 kDa protein by 61%.

[3] = tested on: methyltransferase activity in HL-60 cells; test: Methylation of AFC by activity present in HL-60 cell membrane; assay type: biochemical; conditions: 10-fold excess of FTA
[4] = tested on: methyltransferase present in HL-60 cell extracts; test: Methylation of transducin γ subunit by HL-60 cell extract methyltransferase; assay type: biochemical; conditions: in words
[5] = [3H]SAM and washed ROS membranes

T1 sequence (A0AAA9SD88 1-284): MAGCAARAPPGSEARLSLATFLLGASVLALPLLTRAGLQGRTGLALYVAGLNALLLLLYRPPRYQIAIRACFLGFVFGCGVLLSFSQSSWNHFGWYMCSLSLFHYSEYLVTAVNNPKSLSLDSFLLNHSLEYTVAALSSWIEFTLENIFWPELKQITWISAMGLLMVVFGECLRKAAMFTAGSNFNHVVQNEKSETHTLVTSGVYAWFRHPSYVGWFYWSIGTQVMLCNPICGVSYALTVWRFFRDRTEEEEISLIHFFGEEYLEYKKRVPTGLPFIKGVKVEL

In the case of `COC(=O)[C@H](CSC/C=C(\C)CC/C=C(\C)CCC=C(C)C)NC(C)=O` [AFC methyl ester], the “hydrolysis of methyl ester by demethylase activity” value ([1]; ROS membranes, in presence of methylation inhibitors) is reported as “rapidly hydrolyzed”, the “duration of linear incorporation of radioactivity” value [1, 5] is reported as “at least 2 hr” and the “incorporation of radioactivity into AFC methyl ester” value [1, 5] is reported as “linear, time-dependent incorporation of radioactivity”. The “turnover by HL-60 cell extracts” value (HL-60 cell extracts) was “can be turned over”.

In the case of `CC(C)=CCC/C(C)=C/CC/C(C)=C/CSCC(=O)O` [FTA, 2-farnesylthioacetic acid], the Ki ([2]; Table 1, conventional inhibitors, read-out: Ki) is reported as 4.6 µM, the Ki ([2]; calculated, read-out: Ki for inhibition of AFC methylation) is reported as 4.6 µM and the “competitive inhibition of AFC methylation” value ([2]; in words) is reported as “potent competitive inhibitors”. The “substrate activity for ROS methyltransferase” value ([2]; in words) was “substrate activity was lost; also recorded: not substrates”, the “inhibition of in vitro carboxyl-methylation of transducin γ subunit” value (transducin γ subunit) was 70% and the “inhibition of proliferation of HL-60 cells” value (HL-60 cells) was “can inhibit proliferation”. For the same molecule, the “inhibition of methylation of the 23 kDa protein” value (23 kDa ras protein) was 61% and the “inhibition of AFC methylation by HL-60 membrane activity” value [3] was 90%.

B1: γ subunit of transducin: γ subunit (Tγ) of retinal transducin, farnesylated at cysteine (protein, UniProt P02698 2-71, looked up)
Guanine nucleotide-binding …: PVINIEDLTEKDKLKMEVDQLKKEVTLERMLVSKCCEEFRDYVEERSGEDPLVKGIPEDKNPFKELKGGC(Farnesyl)
modifications: ends and bridges not checked
notes: γ subunit (Tγ) of retinal transducin, farnesylated at cysteine
With B1 the “methylation by methyltransferase in HL-60 cell extracts” value [4] was “can be methylated”.
